What all share (assay type): cell-based
Test [1] concerns Endothelial cell line HUVEC. As to the kind of experiment: Inhibitory activity on cells, CellTiter-Glo viability, HUVEC. To be noted: Homo sapiens, 72 hours treatment. The method, then: (§1) HUVEC (purchased from Allcells Biological Technology (Shanghai) Co., Ltd.); UM-UC-3 (ATCC); LNCaP (ATCC); RM-1 (purchased from Nanjing Cobioer Biosciences Co., Ltd.) (1) On the first day, the cells were seeded in a 96-well plate, and the previous medium was poured off. 5 mL of DPBS was added to wash the cells, and then removed by a pipette and discarded. Then, 1 mL of trypsin (0.25%) was added, and the plate was placed in a cell culture incubator at 37 °C, 5% CO2 for digestion, and taken out after about 2 to 5 minutes. New corresponding medium was added, and pipetted to resuspend the cells evenly, and the cells were then counted with an automated cell counter. Regarding HUVEC, the medium used was endothelial cell complete medium; regarding UM-UC-3, the medium used was 89 v % EMEM+10 v % fetal bovine serum+1 v % penicillin-streptomycin double anti-body; regarding LNcaP, the medium used was 89 v % RPM11640+10 v % fetal bovine serum+1 v % penicillin-streptomycin double anti-body; and regarding RM1, the medium used was 89 v % DMEM+10 v % fetal bovine serum+1 v % penicillin-streptomycin double anti-body. (2) HUVEC cells were seeded in columns 1 to 11 of a 96-well plate (Corning, Cat. No. 3610) at a density of 2000 cells per well in 100 μL of medium, and the medium free of cell was added to the wells of column 12. The other three types of cells were also seeded, wherein UM-UC-3 and RM-1 cells were seeded at a density of 3000 cells per well, and LNCap cells were seeded at a density of 5000 cells per well. Then, the plate was placed in an incubator at 37° C., 5% CO2 for 24 hours. (3) On the second day, the compounds of the present invention and the reference drug nitroxoline (obtained according to the preparation method disclosed in the prior art) were diluted in gradient (2.5 folds, started at 100 μmol) to obtain 8 dose points (there were a total of 8 columns of wells; the first column of wells had the highest concentration, the concentration decreased in turn, and the last column of wells had the lowest concentration). 10 μL of the compound diluted in gradient was added to the 100 μL of cells in column 1 to column 10 with an 8-channel pipette. 10 μL of the corresponding medium containing 0.33 v % DMSO was added to column 11 and column 12. The plate was incubated in an incubator at 37° C., 5% CO2 for 72 hours (note: column 11 was used as MAX well with cells and no compounds; and column 12 was used as MIN well with no cells and no compounds). (4) After treating with the compounds of the present invention for 72 hours, the cell viability detection reagents in the above CellTiter-Glo® assay kit were added to the 96-well plate at 50 μL per well according to the instructions. The plate was shaken on a shaker in the dark for 5 to 10 minutes, and then the cell activity was determined by a multifunctional microplate reader. Finally, the growth inhibition of the compounds of the present invention on the cells was plotted by XLFIT 5.3 software, and the IC50 values of the compounds of the present invention were calculated.
(Cellular ATP, detected with luciferase, serves as a proxy for viable cell number.)

The subject of test [2] is Bladder cancer cell line UM-UC-3. The test can be described thus: Inhibitory activity on cancer cells, CellTiter-Glo viability, UM-UC-3. To be noted: Homo sapiens, UMUC3, 72 hours treatment. The method, then: as §1
Test [3] relates to Prostate cancer cell line LNcaP. As to the kind of experiment: Inhibitory activity on cancer cells, CellTiter-Glo viability, LNcaP. To be noted: Homo sapiens, 72 hours treatment. The method, then:
as §1

Test [4] has as its system Escherichia coli (carbapenem-resistant clinical isolate; ATCC25922). As to the kind of experiment: MIC by micro broth dilution (CLSI), Escherichia coli. The note with it: for MIC50 / MIC90: ATCC25922, Clinical strain; for MIC50 / MIC90 / MIC: Escherichia coli; for MIC50: read-out: MIC50; for MIC90: read-out: MIC90; for MIC: Standard strain ATCC25922, read-out: MIC. A digest of the protocol: (§2)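 CLSI broth microdilution in cation-adjusted Mueller-Hinton broth, compounds in DMSO at 128 to 0.06 mg/L. Inoculum 10^5 CFU/mL from 0.5 McFarland suspensions diluted 100-fold; 35±2 °C, 20 h in air. Clinical isolates plus ATCC/NCTC quality-control strains; interpretation per CLSI 2019 M100.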
(Broth dilution looks for growth in wells or tubes with falling amounts of substance.)

The test system of test [5] is Acinetobacter baumannii (carbapenem-resistant clinical isolates; ATCC19606). The test can be described thus: MIC by micro broth dilution (CLSI), Acinetobacter baumannii. The note with it: Acinetobacter baumannii; for MIC50 / MIC90: ATCC19606, Clinical strain; for MIC50: read-out: MIC50; for MIC90: read-out: MIC90; for MIC: Standard strain ATCC19606, read-out: MIC. The procedure, abridged: as §2

The subject of test [6] is Staphylococcus aureus (methicillin-resistant and sensitive clinical isolates; ATCC29213). The test can be described thus: MIC by micro broth dilution (CLSI), Staphylococcus aureus. To be noted: for MIC50 / MIC90: Clinical strain; for MIC50: read-out: MIC50; for MIC90: read-out: MIC90; for MIC: Standard strain ATCC29213, read-out: MIC. A digest of the protocol:
as §2

Values after ≈ are worked out from the molar mass of the structure shown. Where only a bound is given, the exact number is not on record here.

Consider `O=[N+]([O-])c1ccc2c(Cl)ccnc2c1O` [Example 12, 4-Chloro-7-nitroquinolin-8-ol], for which the IC50 – broadly, the point on the concentration scale where inhibition reaches its midpoint – in test [1] was found to be 7.5 µM; in test [2], 7.5 µM; in test [3], 4.1 µM. For the same compound, the MIC50 (in general, an inhibitory concentration at the 50% level, which refers to growth in some studies and to a panel of isolates in others) in test [4] amounted to 4 mg/L (≈ 17.8 µM); in test [5], 2 mg/L (≈ 8.9 µM); in test [6], 2 mg/L (≈ 8.9 µM). Also, the MIC90 (commonly the lowest concentration that inhibits either 90% of growth or 90% of the strains tested, depending on the study) in test [4] amounted to 4 mg/L (≈ 17.8 µM); in test [5], 4 mg/L (≈ 17.8 µM); in test [6], 2 mg/L (≈ 8.9 µM). Moreover, the MIC (usually the lowest concentration found to suppress growth) was found to be 4 mg/L (≈ 17.8 µM) in test [4], 4 mg/L (≈ 17.8 µM) in test [5] and 2 mg/L (≈ 8.9 µM) in test [6]. The “inhibitory effect against Escherichia coli compared with the reference drug nitroxoline” value in test [4] (MIC comparison) was “comparable to that of the reference drug nitroxoline”.
In the case of `O=[N+]([O-])c1ccc2c(N3CCCC3)ccnc2c1O` [Example 13, 7-Nitro-4-(pyrrolidin-1-yl)quinolin-8-ol], the IC50 in test [1] was over 50 µM; in test [2], 38 µM; in test [3], 35.4 µM. The MIC50 in test [4], in test [5] and in test [6] was over 128 mg/L throughout. Moreover, the MIC90 in test [4], in test [5] and in test [6] was over 128 mg/L throughout. Besides, the minimum inhibitory concentration (MIC) in test [4], in test [5] and in test [6] was over 128 mg/L in each case.
As to `O=[N+]([O-])c1ccc2c(N3CCOCC3)ccnc2c1O` [Example 14, 4-Morpholino-7-nitroquinolin-8-ol], the IC50 in test [1] is 10.9 µM; in test [2], 6.1 µM; in test [3], 8.7 µM. For the same compound, the MIC50 in test [4], in test [5] and in test [6] was 128 mg/L (≈ 465 µM) in each case. Moreover, the MIC90 in test [4] is 128 mg/L (≈ 465 µM); in test [5] it was over 128 mg/L; in test [6] it was 128 mg/L (≈ 465 µM). Also, the results for the MIC in test [4], in test [5] and in test [6] were over 128 mg/L, over 128 mg/L and 128 mg/L (≈ 465 µM), respectively.
For the compound `O=[N+]([O-])c1ccc2c(-n3ccnc3)ccnc2c1O` [Example 15, 4-(1H-Imidazol-1-yl)-7-nitroquinolin-8-ol], the results for the IC50 in test [1], in test [2] and in test [3] were 32.3 µM, 36.2 µM and 35.2 µM, respectively. Moreover, the MIC50 in test [4] was 128 mg/L (≈ 500 µM); in test [5], over 128 mg/L; in test [6] it was 64 mg/L (≈ 250 µM). Besides, the results for the MIC90 in test [4], in test [5] and in test [6] were 128 mg/L (≈ 500 µM), over 128 mg/L and 128 mg/L (≈ 500 µM), respectively. The MIC in test [4] was over 128 mg/L; in test [5], over 128 mg/L; in test [6], 128 mg/L (≈ 500 µM).
Take `O=[N+]([O-])c1ccc2c(NC3COC3)ccnc2c1O` [Example 19, 7-Nitro-4-(3-oxetanylamino)quinolin-8-ol]: the IC50 in test [1], in test [2] and in test [3] was over 100 µM throughout.
As to `O=[N+]([O-])c1cc(Cl)c2c(N3CCCC(F)C3)ccnc2c1O` (stereo not shown) [Example 119, 5-chloro-4-(3-fluoropiperidin-1-yl)-7-nitroquinolin-8-ol], in test [4], the MIC50 is over 128 mg/L, the MIC90 was over 128 mg/L and the MIC is over 128 mg/L. Further, in test [5], the MIC50 was found to be 128 mg/L (≈ 393 µM), the MIC90 is over 128 mg/L and the MIC was over 128 mg/L. Besides, in test [6], the MIC50 turned out to be 16 mg/L (≈ 49.1 µM), the MIC90 stood at 128 mg/L (≈ 393 µM) and the MIC is 128 mg/L (≈ 393 µM).

These data come from patent publication US20240246916A1, “7-NITRO-8-HYDROXYQUINOLINE DERIVATIVES, PREPARATION METHOD THEREFORE AND MEDICAL USE THEREOF” (Jiangsu Yahong Meditech Co., Ltd., priority 2021, published 2024).
